The term IC50 denotes the midpoint of a concentration-inhibition curve.

The values below come from patent US12344599B2, “Prodigiosin analogs and methods of use” (Institute For Cancer Research, priority 2016, dated 2025).

Molecules are shown by their SMILES. “Also recorded” adds a separate entry of the source.

In one assay the test system is FaDu. In words: CellTiterGlo cell viability assay, FaDu. Particulars: Homo sapiens, head & neck squamous cell carcinoma, p53 R248L, 72 hours. It is filed as cell-based. As to the method:
(§1) • 1) Cell lines: HT29, SW480, DLD-1, HCT116, and p53-null HCT116 cells, H1975, MDA-MD-231, U251, FaDu, CAL-27, PANC-1, Aspc-1, and MRC5 were obtained from the ATCC and cultured as recommended. Cells were regularly authenticated by bioluminescence, growth, and morphologic observation. The cells were routinely examined for Mycoplasma and all cell lines underwent STR authentication. • 2) Western blotting: After treatment, protein lysates were collected for Western blot analysis. 15 μg of protein was used for SDS-PAGE. After primary and secondary antibody incubations, the signal was detected by chemiluminescent detection kit, imaged by Syngene (Imgen Technologies). […] The cell viability was assessed by CellTiterGlo bioluminescent cell proliferation assay (Promega), following the manufacturer's protocol. Bioluminescence imaging was measured using the IVIS imager. Percentage of cell viability (mean±SEM) at each dose was calculated against the respective DMSO control. The IC50 values were determined from the sigmoidal dose-response curves using GraphPad Prims4. • 4) Caspase activity assay: Cells were seeded in 96-well plate (1×10^4 cells/well). […] The caspase 3/7 activity was assessed by Caspase-Glo® 3/7 Assay kit (Promega), following the manufacturer's protocol. Bioluminescence imaging was measured using the IVIS imager. […]
(In general: ATP-based viability assays read luminescence as a measure of living cells.)

Another assay has as its system ASPC-1. The assay is described as follows: CellTiterGlo cell viability assay, ASPC-1. Particulars: Homo sapiens, ASPC1; ASPC-1, pancreatic cancer, p53 frameshift, 72 hours. It is filed as cell-based. As to the method: as §1
Another assay concerns MDA-MB-231. The assay is described as follows: CellTiterGlo cell viability assay, MDA-MB-231. It is filed as cell-based. Particulars: Homo sapiens; MDA-MB-231, breast cancer, p53 R280K, 72 hours. As to the method:
as §1

A further assay has as its system MDA-MB-468. The assay is described as follows: CellTiterGlo cell viability assay, MDA-MB-468. It is filed as cell-based. Particulars: Homo sapiens; MDA-MB-468, breast cancer, p53 R273H, 72 hours.
Assay [1] concerns human cancer cells with mutant p53. The assay is described as follows: CellTiterGlo cell viability assay, panel of cancer cell lines. It is filed as cell-based. As to the method: as §1
For another assay, the system named is p53-target genes. In words: Western blotting of p53-target genes (Example 1). It is filed as cell-based, human. As to the method:
After treatment, protein lysates were collected for Western blot analysis. Twenty-five micrograms of protein were used for SDS-PAGE. After primary and secondary antibody incubations, the signal was detected with a chemiluminescent detection kit, followed by autoradiography or Syngen. […] In FIG. 10, p53-null HCT116 cells were treated with P01 and P306, alone or in combination with SiCon or SiTAp73, in various concentrations for 6 hours, and tested for p73 (C.S.), p73 (Bethyl), P63-α, p53, DR5, Puma, P21, and Ran proteins.
On the technique in general: A western blot detects proteins with antibodies after separation by electrophoresis.

A further assay relates to caspase 3/7. The assay is described as follows: Caspase-Glo 3/7 caspase activity assay. It is filed as cell-based, human. The conditions noted are these: mutant p53 and p53-null cancer cells, 24 hours. As to the method: as §1
In assay [2] the test system is HT29 cells. In words: qRT-PCR of p53 target gene mRNA, HT29. It is filed as cell-based, human. The conditions noted are these: HT29, 1 μM, 8 and 19 hours post-treatment. As to the method:
as §1
(In general: Quantitative PCR measures a nucleic acid by following its amplification.)

A further assay concerns SW480 cells. The assay is described as follows: qRT-PCR of p53 target gene mRNA, SW480. It is filed as cell-based, human. Particulars: SW480, 1 μM. As to the method: Total RNA was isolated from PG3-Oc-treated cells using the Quick-RNA mini prep kit (Zymo Research, Irvine, CA) according to the manufacturer's protocol. 500 ng of total RNA was used to generate cDNA using SuperScript III first-strand synthesis system with random primers (Invitrogen), following the manufacturer's protocol. Real-time PCR was performed using POWER SYBR GREEN mast mix (Applied Biosystem) for DR5, p21, PUMA, GAPDH, and TaqMan primer-probes for detection of c-Myc mRNA levels on 7900HT Sequence Detection System (Applied Biosystem). Primers having SEQ ID NOs:1-6 (see above) were used. Taq Prob IDs for c-Myc (HS 00153408) and GAPDH (HA 99999905). ΔΔCt method was used to analyze and report fold changes of the indicated genes.

Assay [3] concerns ATF4 and CHOP in DLD1 cells. In words: Western blot of ATF4 and CHOP, DLD1. It is filed as cell-based, human. As to the method: as §1
Assay [4] has as its system HT29 cells. In words: Western blot of apoptosis markers and PUMA, HT29. It is filed as cell-based, human. As to the method: as §1

`CCCCCCCCOC(=O)CCc1c(C)[nH]c(/C=C2\N=C(c3ccc[nH]3)C=C2OC)c1C` [PG3-Oc, Octyl (Z)-3-(5-((4′-methoxy-1H,5′H-[2,2′-bipyrrol]-5′-ylidene)methyl)-2,4-dimethyl-1H-pyrrol-3-yl)propanoate]: the 50% inhibitory concentration (IC50) in the assay with FaDu turned out to be 66 nM; in the assay on ASPC-1, 39.2 nM; in the assay on MDA-MB-231, 242 nM; in the assay on MDA-MB-468, 97.6 nM. In addition, the “potency for inhibition of cancer cell growth” value in assay [1] (HCT116 and SW480, 72 hours, comparison with prodigiosin and obatoclax) is “comparable with prodigiosin (P) and obatoclax (Ob); also recorded: comparable to prodigiosin and obatoclax”. Moreover, the IC50 values result in assay [1] (panel of human cancer cell lines with mutant p53, 72 hours) was “within the nano-molar range”. For the same compound, the “expression of p53-target genes” value in the assay with p53-target genes is “induced mutant p53 and ΔNp73 degradation and the expression of p53-target genes”. In the assay with caspase 3/7, the “increase in caspase 3/7 activity as compared to untreated cells” value is 2 fold. For the same compound, the “induction of p21 mRNA” value is “Over 3 fold” in the assay with HT29 cells [2]; “no significant change” with SW480 cells (8 and 19 hours post-treatment). Besides, the “DR5 mRNA upregulation” value in the assay with SW480 cells (19 hours post-treatment) was “about 2 fold”. For the same compound, the “concentration at which induction of ATF4 and CHOP occurred” value in assay [3] worked out at 5 µM. The “time at which PUMA protein was first induced post treatment” value with HT29 cells [4] (HT29, time-course) worked out at 16 h. The “concentration sufficient to activate cleaved caspase-8 and -3 and cleaved-PARP” value in the assay on HT29 cells [4] (western blot) amounted to 0.5 µM.
